From US20220387362A1, “COMPOSITIONS COMPRISING A DHODH INHIBITOR FOR THE TREATMENT OF ACUTE MYELOID LEUKEMIA” (RHIZEN PHARMACEUTICALS AG, priority 2019, published 2022)
Where two headings read alike, the source gives them in different places.

How the values were obtained:
[1] = test system: U937; assay: Anti-proliferative effect with uridine rescue (MTT assay); format: cell-based; conditions: Homo sapiens, U-937, 72 h
Method: (§1) Compound A was tested in the absence of Uridine (U937, HL-60, THP-1 and MV411 cell lines) or in the presence of Uridine (100 μM for U937, HL-60 and MV411 and 300 μM for THP-1). Cells were plated in 96-well plates and incubated with desired concentrations of Compound A for 72 h. At the end of the incubation period, MTT ((3-(4,5-dimethylthiazol-2-yl)-2,5-diphenyltetrazolium bromide)) was added. The plates were placed on a shaker for 5 min to mix the formazan and the optical density at 560 nm was measured on a spectrophotometer. Data were plotted using Graphpad prism for calculation of the GI50 concentrations.

[2] = test system: HL-60; assay: as above; format: cell-based; conditions: Homo sapiens, 72 h
Method: as §1

[3] = test system: MV411; assay: as above; format: cell-based; conditions: Homo sapiens, MV4-11, 72 h
Method: as §1

[4] = test system: THP-1; assay: as above; format: cell-based; conditions: Homo sapiens, 72 h
Method: as §1

[5] = test system: MV411 xenograft; assay: MV411 mouse xenograft model; format: in vivo
Method: The effect of Compound A was determined in a MV411 mouse xenograft model. Briefly, 5×10^6 cells were injected into the right flank region by Subcutaneous administration under sterile condition. The oral administration of Compound (A) at 30 mg/kg/BID for 21 days. The tumors were measured using a calliper in two dimensions, length (a) and width (b). Tumor volumes were estimated from measurements of the two diameters of the individual tumors as follows: Tumor Volume (mm3)=(a×b2)/2. At the end of the study period, animals were sacrificed and the tumors harvested.

[6] = test system: CD11b mRNA expression in THP-1; assay: CD11b mRNA expression in THP-1 cell lines (Real-Time PCR); format: cell-based; conditions: THP-1, 3 μM, 72 hours
Method: THP-1 cells were plated in complete media at pre-determined density in 6-well plates and the cells were treated with Compound A for 72 hours. mRNA was isolated using TRI reagent according to the manufacturer's protocol (TRI Reagent from Sigma). cDNA was synthesized using cDNA Synthesis kit according to manufacturer's protocol (First Strand cDNA Synthesis kit) and Real-Time PCR was performed. Data was calculated using delta delta Ct method. Fold change in mRNA expression was plotted using GraphPad Prism (Version 5.02)

[7] = test system: AML cell lines (U937, HL-60, THP-1, KG-1 and MV411); assay: Anti-proliferative effect across panel of AML cell lines (MTT assay); format: cell-based; conditions: U937, HL-60, THP-1, KG-1, MV411; 72 h; read-out: GI50 range over all AML cell lines tested
Method: as §1, with “across a panel” for “in the absence”, “AML cell lines” for “Uridine”, “THP-1, KG-1” for “THP-1”, “MV411).” for “MV411 cell lines) or in the presence of Uridine (100 μM for U937, HL-60 and MV411 and 300 μM for THP-1).”, “hours (h).” for “h.”

[8] = test system: AML cell line U937; assay: Anti-proliferative effect in combination with gilteritinib (MTT assay); format: cell-based
Method: (§2) Compound A (at 3 μM) and gilteritinib (1.5 μM) was tested in AML cell line U937. Cells were plated in 96-well plates and incubated with desired concentrations of Compound A for 72 h. At the end of the incubation period, MTT ((3-(4,5-dimethylthiazol-2-yl)-2,5-diphenyltetrazolium bromide)) was added. The plates were placed on a shaker for 5 min to mix the formazan and the optical density at 560 nm was measured on a spectrophotometer. Data were plotted using Graphpad prism for calculation of the percentage inhibition to determine the effect of Compound A as a single agent or in combination with gilteritinib.

[9] = test system: CD11b expression in THP-1; assay: CD11b cell surface expression (flow cytometry); format: cell-based; conditions: THP-1, 5 μM, 96 hours
Method: (§3) Cells were plated in complete media at pre-determined density in 6-well plates and the cells were treated with Compound A 96 hours for THP-1 cell lines and 72 hours for MV411 cell lines) in the presence or absence of uridine. The cells were stained with CD11b Antibody PE according to manufacturer's protocol (CD11b Monoclonal Antibody (ICRF44), PE, eBioscience) and the cells were acquired and analysed by flow cytometry (Guava Easycyte).

[10] = test system: CD11b expression in MV411; assay: CD11b cell surface expression (flow cytometry); format: cell-based; conditions: MV411, 3 μM, 72 hours
Method: as §3

[11] = test system: AML cell lines (U937, HL-60, THP-1 and MV411); assay: Anti-proliferative effect with uridine rescue, AML cell lines together (MTT assay); format: cell-based
Method: as §1

[12] = test system: AML cell line THP-1; assay: Anti-proliferative effect in combination with gilteritinib (MTT assay); format: cell-based
Method: as §2, with “Gilteritinib (0.25” for “gilteritinib (1.5”, “THP-1.” for “U937.”

[13] = test system: HL60; assay: Anti-proliferative effect in AML cell lines (MTT assay); format: cell-based; conditions: Homo sapiens, HL-60, HL60, 72 h
Method: as §1, with “across a panel” for “in the absence”, “AML cell lines” for “Uridine”, “THP-1, KG-1” for “THP-1”, “MV411).” for “MV411 cell lines) or in the presence of Uridine (100 μM for U937, HL-60 and MV411 and 300 μM for THP-1).”, “hours (h).” for “h.”

[14] = test system: KG-1; assay: as above; format: cell-based; conditions: Homo sapiens, KG-1, 72 h
Method: as §1, with “across a panel” for “in the absence”, “AML cell lines” for “Uridine”, “THP-1, KG-1” for “THP-1”, “MV411).” for “MV411 cell lines) or in the presence of Uridine (100 μM for U937, HL-60 and MV411 and 300 μM for THP-1).”, “hours (h).” for “h.”

[15] = test system: U937; assay: as above; format: cell-based; conditions: Homo sapiens, U-937, U937, 72 h
Method: as §1, with “across a panel” for “in the absence”, “AML cell lines” for “Uridine”, “THP-1, KG-1” for “THP-1”, “MV411).” for “MV411 cell lines) or in the presence of Uridine (100 μM for U937, HL-60 and MV411 and 300 μM for THP-1).”, “hours (h).” for “h.”

[16] = test system: MV411; assay: as above; format: cell-based; conditions: Homo sapiens, MV4-11, MV411, 72 h
Method: as §1, with “across a panel” for “in the absence”, “AML cell lines” for “Uridine”, “THP-1, KG-1” for “THP-1”, “MV411).” for “MV411 cell lines) or in the presence of Uridine (100 μM for U937, HL-60 and MV411 and 300 μM for THP-1).”, “hours (h).” for “h.”

[17] = test system: THP-1; assay: as above; format: cell-based; conditions: Homo sapiens, THP-1, 72 h
Method: as §1, with “across a panel” for “in the absence”, “AML cell lines” for “Uridine”, “THP-1, KG-1” for “THP-1”, “MV411).” for “MV411 cell lines) or in the presence of Uridine (100 μM for U937, HL-60 and MV411 and 300 μM for THP-1).”, “hours (h).” for “h.”

[18] = in combination with cyclosporine; cited from earlier work
[19] = patients; cited from earlier work
[20] = Homo sapiens, U-937, U937, 72 h, Compound A 3 μM, gilteritinib 1.5 μM, read-out: % inhibition of cell growth
[21] = Homo sapiens, THP-1, 72 h, Compound A 3 μM, Gilteritinib 0.25 μM, read-out: % inhibition of cell growth

**Q.** Which results are given for `CCCCOc1cccc(-c2cc(F)c(NC(=O)c3ccccc3C(=O)O)c(Cl)c2)c1` [Compound A, 2-(3′-butoxy-3-chloro-5-fluorobiphenyl-4-ylcarbamoyl)benzoic acid]?
**A.** GI50 ([1]; U937, 100 μM uridine): > 10 µM; GI50 ([1]; U937, absence of uridine): 3.2 µM; GI50 ([2]; HL-60, 100 μM uridine): > 10 µM; GI50 ([2]; HL-60, absence of uridine): 3.6 µM; GI50 ([3]; MV411, 100 μM uridine): > 10 µM; GI50 ([3]; MV411, absence of uridine): 2.6 µM; GI50 ([4]; THP-1, 300 μM uridine): > 10 µM; GI50 ([4]; THP-1, absence of uridine): 2 µM; tumor growth inhibition ([5]; Compound A 30 mg/kg/BID oral 21 days, combination with cytarabine 20 mg/Kg): 37%; adverse events or body weight changes ([5]; throughout the study period, MV411 xenograft mice): No adverse events or body weight changes were observed; melting point: 128 to 130 °C; induction of CD11b gene expression [6]: 80 fold; GI50 [7]: 2.4 to 7.6 µM; inhibition at 3 µM [8, 20]: 41.4%; effect on activity of gilteritinib (cell growth inhibition) ([8]; U937, p<0.05): potentiated; CD11b cell surface expression after addition of uridine ([9]; with uridine): 15%; CD11b cell surface expression, % of cell population ([9]; without uridine): 40%; CD11b cell surface expression, % of cell population [10]: 35%; GI50 ([11]; 100 μM or 300 μM uridine, read-out: GI50 over AML cell lines with addition of uridine): > 10 µM; GI50 ([11]; U937, HL-60, THP-1, MV411, no uridine, read-out: GI50 range over AML cell lines, without uridine): 2 to 3.2 µM; inhibition at 3 µM [12, 21]: 35.8%; effect on activity of gilteritinib (cell growth inhibition) ([12]; THP-1, p<0.05): potentiated; GI50 [13]: 3.5 µM; GI50 [14]: 7.6 µM; GI50 [15]: 2.4 µM; GI50 [16]: 2.5 µM; GI50 [17]: 2.5 µM

**Q.** Which results are given for `CCc1nc(C(N)=O)c(Nc2ccc(N3CCC(N4CCN(C)CC4)CC3)c(OC)c2)nc1NC1CCOCC1` [Gilteritinib, reference compound]?
**A.** inhibition at 1.5 µM [8, 20]: 41.7%; inhibition at 0.25 µM [12, 21]: 40.1%

**Q.** With `Cc1c(-c2ccc(-c3ccccc3F)cc2)nc2ccc(F)cc2c1C(=O)O` [brequinar] as the compound, how does the “toxic effects on oral administration” value [18] read?
**A.** Its value is “toxic effects, including leukocytopenia and thrombocytopenia”.

**Q.** For `Cc1oncc1C(=O)Nc1ccc(C(F)(F)F)cc1` [leflunomide], which half-life time [19] is on record?
**A.** Its half-life time is “approximately 2 weeks”.
